Reference: patent publication US12018059B2, “Human amylin analog polypeptides and methods of use” (Intarcia Therapeutics, Inc., priority 2018, dated 2024)
Like-named read-outs stand apart in the source and are kept apart here. Starred links: 1 amine or outer side, 2 acyl side, 3 side chain; linkers in the order of their positions; H or OH if unused. Positions of bridges follow the written chain, without caps; N, C: chain ends. Non-standard residues stand in square brackets, D forms with d. Residues, ends and D or L forms follow the SMILES beside them. Groups on a side chain read outwards from the residue. *: point of attachment. C20 diacid = O=C(O)CCCCCCCCCCCCCCCCCCC(=O)*; C18 diacid = O=C(O)CCCCCCCCCCCCCCCCC(=O)*; γGlu = O=C(O)[C@H](CCC(=O)[*:2])N[*:1]; AEEA = NCCOCCOCC(=O)O

Columns and labels:
[1] = Pharmacokinetics, 3-hour intravenous infusion of linear (non-acylated) polypeptides; set-up: species or system Sprague-Dawley rats; settings: rat, in vivo, iv, 0.1 mg/kg
[2] = target: T1, human calcitonin receptor (hCTR) (Homo sapiens, UniProt P30988); assay: cAMP accumulation functional assay in HEK293-CNG cells expressing hCTR; assay type: cell-based
T1 sequence (P30988 25-474): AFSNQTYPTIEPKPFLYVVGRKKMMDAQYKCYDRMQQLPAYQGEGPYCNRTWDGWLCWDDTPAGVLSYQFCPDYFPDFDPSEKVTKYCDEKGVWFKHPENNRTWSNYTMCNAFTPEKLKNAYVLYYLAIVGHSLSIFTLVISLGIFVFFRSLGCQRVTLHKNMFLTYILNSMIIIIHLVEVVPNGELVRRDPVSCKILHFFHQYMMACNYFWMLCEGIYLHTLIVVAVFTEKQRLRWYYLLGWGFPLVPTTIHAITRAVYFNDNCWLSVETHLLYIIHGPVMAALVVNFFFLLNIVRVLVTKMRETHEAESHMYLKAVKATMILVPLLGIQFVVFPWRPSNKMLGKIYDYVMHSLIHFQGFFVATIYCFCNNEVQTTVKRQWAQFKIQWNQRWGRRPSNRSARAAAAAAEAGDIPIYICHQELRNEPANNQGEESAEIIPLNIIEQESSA
Protocol: (§1) In the presence of the non-specific cAMP/cGMP phosphodiesterase inhibitor 3-isobutyl-1-methylxanthine (IBMX), accumulating cAMP can be measured in vitro using common detection methods. Thus, it is possible to estimate an in vitro potency (pEC50) for peptides activating each of these receptors using fit dose-response curves for cAMP accumulation.
(§2) Cells were carried in growth media for no more than 10 passages prior to testing.
(§3) Peptides were serially diluted in the same buffer as above for each given assay condition. Two assay control solutions consisting of 50 mcM forskolin (cAMP system maximum) or assay buffer only (cAMP system minimum) were also prepared in the appropriate stimulation buffers. Five microliters of each peptide-concentration, or assay control was added to triplicate wells and incubated for thirty minutes at room temperature. During this incubation step a 4× europium labelled cAMP tracer solution and a 4× Ulight®-anti-cAMP solution (consisting of an anti-cAMP monoclonal antibody labelled with Ulight™ dye) was prepared according to the manufacturer's protocol (PerkinElmer LANCE Ultra cAMP kit). Following this incubation, 5 mcL europium labelled cAMP and 5 mcL Ulight anti-cAMP antibody was added to wells. The plate was covered with an adhesive cover to prevent evaporation and incubated for 60 minutes at room temperature in the dark. Plates were read on an Envision fluorescent plate reader (PerkinElmer).
(§4) Test values were first normalized to the forskolin induced cAMP system maximum and system minimum averaged values in Excel using the formula: (test value−system minavg)/(system maxavg−system minavg)*100. Normalized test values represent a baseline corrected percentage of the system maximum cAMP response induced by forskolin. Normalized data was analyzed from triplicate tests and used to estimate the EC50 for each peptide on each receptor. Data was fit in GraphPad Prism software (v7.04) using a 4-parameter logistic curve model: Y=Bottom+(Top−Bottom)/(1+10^((Log EC50−X))). The Hill slope was constrained to 1.0. EC50 values were converted to pEC50 values using the formula: pEC50=−Log (EC50).

[3] = target: human amylin 3 receptor (hAMY3R) (Homo sapiens, UniProt O60896+P30988); assay: cAMP accumulation functional assay in HEK293-CNG cells expressing hAMY3R; assay type: cell-based
Chain of human amylin 3 receptor (hAMY3R) (O60896 24-148, one chain of several): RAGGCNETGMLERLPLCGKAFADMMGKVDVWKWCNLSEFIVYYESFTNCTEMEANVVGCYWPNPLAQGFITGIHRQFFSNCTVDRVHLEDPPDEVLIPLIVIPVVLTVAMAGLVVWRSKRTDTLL
Protocol: as §1, §2, §3, §4

in vivo = assay: in vivo; set-up: species or system Sprague-Dawley rats; settings: rat, iv, 0.033 mg/kg
Outline: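 Peptide plasma levels measured by UPLC-MS/MS (C18, product-ion monitoring) after protein precipitation or WCX SPE, calibrated in K2EDTA/protease-inhibitor rat plasma. Dosing in non-fasted male Sprague-Dawley rats (n=3): 0.033 mg/kg over 1 h by IV or SC infusion, or 0.3 mg/kg SC bolus; sampling up to 48 h.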

[4] = hCTR 0% HSA, 0% HSA, read-out: pEC50 hCTR 0% HSA (converted)
[5] = hCTR 4% HSA, 4% HSA, read-out: pEC50 hCTR 4% HSA (converted)
[6] = 0% HSA, read-out: pEC50 hAMY3R 0% HSA (converted)
[7] = 4% HSA, read-out: pEC50 hAMY3R 4% HSA (converted)
[8] = pEC50 hAMY3R 0.1% HSA, 0.1% HSA

clearance [1] [mL/min/kg] | EC50 [2, 4] [nM] | EC50 ([2]; hCTR 0.1% HSA, 0.1% HSA) [nM] | EC50 [2, 5] [nM] | EC50 [3, 6] [nM] | EC50 [3, 7] [nM] | EC50 [3, 8] [nM] | Vd (in vivo) [L/kg] | clearance (in vivo) [mL/min/kg] | half-life (in vivo) [h] | Structure (SMILES)
18.8 | – | – | – | – | – | – | – | – | – | CC[C@H](C)[C@H](NC(=O)[C@@H]1CCCN1C(=O)CNC(=O)[C@H](Cc1ccccc1)NC(=O)[C@H](CC(N)=O)NC(=O)[C@H](CC(N)=O)NC(=O)[C@H](CO)NC(=O)[C@H](CO)NC(=O)[C@H](CCCCN)NC(=O)[C@H](CCC(N)=O)NC(=O)[C@H](CC(C)C)NC(=O)[C@H](Cc1ccccc1)NC(=O)[C@H](CC(N)=O)NC(=O)[C@H](C)NC(=O)[C@H](CC(C)C)NC(=O)[C@H](CCCNC(=N)N)NC(=O)[C@H](CO)NC(=O)[C@@H](NC(=O)[C@H](C)NC(=O)[C@@H]1CSSC[C@H](NC(=O)[C@@H](N)CO)C(=O)N[C@@H](CC(N)=O)C(=O)N[C@@H]([C@@H](C)O)C(=O)N[C@@H](CO)C(=O)N[C@@H]([C@@H](C)O)C(=O)N1)[C@@H](C)O)C(=O)N[C@@H](CC(C)C)C(=O)N1CCC[C@H]1C(=O)N1CCC[C@H]1C(=O)N[C@H](C(=O)N[C@@H](CCCCN)C(=O)N[C@H](C(=O)NCC(=O)N[C@@H](CO)C(=O)N[C@@H](CCC(=O)O)C(=O)N[C@H](C(=O)N[C@@H](Cc1ccc(O)cc1)C(N)=O)[C@@H](C)O)C(C)C)[C@@H](C)O [Compound A62] (H-SCNTSTCATSRLANFLQKSSNNFGPILPPTKVGSETY-NH2; disulfide 2-7)
– | 0.0316 | 7.94 | 79.4 | 0.00794 | 25.1 | 1.58 | 0.14 | 0.0791 | 21.4 | CC[C@H](C)[C@H](NC(=O)[C@@H]1CCCN1C(=O)CNC(=O)[C@H](Cc1ccccc1)NC(=O)[C@H](CC(N)=O)NC(=O)[C@H](CC(N)=O)NC(=O)[C@H](CO)NC(=O)[C@H](CO)NC(=O)[C@H](CCCCN)NC(=O)[C@H](Cc1c[nH]cn1)NC(=O)[C@H](CC(C)C)NC(=O)[C@@H](CCCCNC(=O)CC[C@H](NC(=O)CC[C@H](NC(=O)COCCOCCNC(=O)CC[C@H](NC(=O)CCCCCCCCCCCCCCCCCCC(=O)O)C(=O)O)C(=O)O)C(=O)O)NC(=O)[C@H](CC(N)=O)NC(=O)[C@H](C)NC(=O)[C@H](CC(C)C)NC(=O)[C@H](CCCNC(=N)N)NC(=O)[C@H](CCC(N)=O)NC(=O)[C@@H](NC(=O)[C@H](C)NC(=O)[C@@H]1CSSC[C@H](NC(=O)[C@@H](N)CO)C(=O)N[C@@H](CC(N)=O)C(=O)N[C@@H]([C@@H](C)O)C(=O)N[C@@H](CO)C(=O)N[C@@H]([C@@H](C)O)C(=O)N1)[C@@H](C)O)C(=O)N[C@@H](CC(C)C)C(=O)N1CCC[C@H]1C(=O)N1CCC[C@H]1C(=O)N[C@H](C(=O)N[C@@H](CCCCN)C(=O)N[C@H](C(=O)NCC(=O)N[C@@H](CO)C(=O)N[C@@H](CCC(=O)O)C(=O)N[C@H](C(=O)N[C@@H](Cc1ccc(O)cc1)C(N)=O)[C@@H](C)O)C(C)C)[C@@H](C)O [Compound A100] (H-SCNTSTCATQRLAN[dK]([γGlu-γGlu-AEEA-γGlu-C20 diacid])LHKSSNNFGPILPPTKVGSETY-NH2; disulfide 2-7; N-terminus assumed)
20 | – | – | – | – | – | – | – | – | – | CC[C@H](C)[C@H](NC(=O)[C@@H]1CCCN1C(=O)CNC(=O)[C@H](Cc1ccccc1)NC(=O)[C@H](CC(N)=O)NC(=O)[C@H](CC(N)=O)NC(=O)[C@H](CO)NC(=O)[C@H](CO)NC(=O)[C@H](Cc1c[nH]cn1)NC(=O)[C@@H](NC(=O)[C@H](CC(C)C)NC(=O)[C@H](Cc1ccc(O)cc1)NC(=O)[C@H](CC(N)=O)NC(=O)[C@H](C)NC(=O)[C@H](CC(C)C)NC(=O)[C@H](CCCNC(=N)N)NC(=O)[C@H](CO)NC(=O)[C@@H](NC(=O)[C@H](C)NC(=O)[C@@H]1CSSC[C@H](NC(=O)[C@@H](N)CO)C(=O)N[C@@H](CC(N)=O)C(=O)N[C@@H]([C@@H](C)O)C(=O)N[C@@H](CO)C(=O)N[C@@H]([C@@H](C)O)C(=O)N1)[C@@H](C)O)C(C)C)C(=O)N[C@@H](CC(C)C)C(=O)N1CCC[C@H]1C(=O)N1CCC[C@H]1C(=O)N[C@H](C(=O)N[C@@H](CCCCN)C(=O)N[C@H](C(=O)NCC(=O)N[C@@H](CO)C(=O)N[C@@H](CCC(=O)O)C(=O)N[C@H](C(=O)N[C@@H](Cc1ccc(O)cc1)C(N)=O)[C@@H](C)O)C(C)C)[C@@H](C)O [Compound A111] (H-SCNTSTCATSRLANYLVHSSNNFGPILPPTKVGSETY-NH2; disulfide 2-7)
– | 0.00501 | 0.2 | 7.94 | – | 1 | 0.0251 | – | – | – | CC[C@H](C)[C@H](NC(=O)[C@@H]1CCCN1C(=O)CNC(=O)[C@H](Cc1ccccc1)NC(=O)[C@H](CC(N)=O)NC(=O)[C@H](CC(N)=O)NC(=O)[C@H](CO)NC(=O)[C@H](CO)NC(=O)[C@H](CCCCN)NC(=O)[C@H](Cc1c[nH]cn1)NC(=O)[C@H](CC(C)C)NC(=O)[C@H](CCC(=O)O)NC(=O)[C@H](CC(N)=O)NC(=O)[C@H](C)NC(=O)[C@H](CC(C)C)NC(=O)[C@H](CCCNC(=N)N)NC(=O)[C@H](CCC(N)=O)NC(=O)[C@@H](NC(=O)[C@H](C)NC(=O)[C@@H]1CSSC[C@H](NC(=O)[C@@H](N)CCCCNC(=O)COCCOCCNC(=O)COCCOCCNC(=O)CC[C@H](NC(=O)CCCCCCCCCCCCCCCCC(=O)O)C(=O)O)C(=O)N[C@@H](CC(N)=O)C(=O)N[C@@H]([C@@H](C)O)C(=O)N[C@@H](CO)C(=O)N[C@@H]([C@@H](C)O)C(=O)N1)[C@@H](C)O)C(=O)N[C@@H](CC(C)C)C(=O)N1CCC[C@H]1C(=O)N1CCC[C@H]1C(=O)N[C@H](C(=O)N[C@@H](CCCCN)C(=O)N[C@H](C(=O)NCC(=O)N[C@@H](CO)C(=O)N[C@@H](CCC(=O)O)C(=O)N[C@H](C(=O)N[C@@H](Cc1ccc(O)cc1)C(N)=O)[C@@H](C)O)C(C)C)[C@@H](C)O [Compound A113] (H-K([AEEA-AEEA-γGlu-C18 diacid])CNTSTCATQRLANELHKSSNNFGPILPPTKVGSETY-NH2; disulfide 2-7)
– | 0.00631 | 0.316 | 12.6 | 0.00126 | 3.16 | 0.0631 | – | – | – | CC[C@H](C)[C@H](NC(=O)[C@@H]1CCCN1C(=O)CNC(=O)[C@H](Cc1ccccc1)NC(=O)[C@H](CC(N)=O)NC(=O)[C@H](CC(N)=O)NC(=O)[C@H](CO)NC(=O)[C@H](CO)NC(=O)[C@H](CCCCN)NC(=O)[C@H](Cc1c[nH]cn1)NC(=O)[C@H](CC(C)C)NC(=O)[C@H](CCC(=O)O)NC(=O)[C@H](CC(N)=O)NC(=O)[C@H](C)NC(=O)[C@H](CC(C)C)NC(=O)[C@H](CCCNC(=N)N)NC(=O)[C@H](CCC(N)=O)NC(=O)[C@@H](NC(=O)[C@H](C)NC(=O)[C@@H]1CSSC[C@H](NC(=O)[C@@H](N)CCCCNC(=O)CC[C@H](NC(=O)CCCCCCCCCCCCCCCCCCC(=O)O)C(=O)O)C(=O)N[C@@H](CC(N)=O)C(=O)N[C@@H]([C@@H](C)O)C(=O)N[C@@H](CO)C(=O)N[C@@H]([C@@H](C)O)C(=O)N1)[C@@H](C)O)C(=O)N[C@@H](CC(C)C)C(=O)N1CCC[C@H]1C(=O)N1CCC[C@H]1C(=O)N[C@H](C(=O)N[C@@H](CCCCN)C(=O)N[C@H](C(=O)NCC(=O)N[C@@H](CO)C(=O)N[C@@H](CCC(=O)O)C(=O)N[C@H](C(=O)N[C@@H](Cc1ccc(O)cc1)C(N)=O)[C@@H](C)O)C(C)C)[C@@H](C)O [Compound A119] (H-K([γGlu-C20 diacid])CNTSTCATQRLANELHKSSNNFGPILPPTKVGSETY-NH2; disulfide 2-7; N-terminus assumed)
